Key:
[1] = human, open pilot study; cited from earlier work
[2] = biological target: human endothelial constitutive NOS (eNOS) (Homo sapiens, UniProt P29474); experiment: biochemical; settings: read-out: h-eNOS IC50

| IC50 [2] [µM] | Structure (SMILES) | patients with a reduction in the frequency of migraine attack of 50% [1] [%] |
| --- | --- | --- |
| – | C/C1=C2/[N-][C@H]([C@H](CC(N)=O)[C@@]2(C)CCC(=O)NC[C@@H](C)OP(=O)([O-])O[C@H]2[C@@H](O)[C@@H](n3cnc4cc(C)c(C)cc43)O[C@@H]2CO)[C@]2(C)N=C(/C(C)=C3N=C(/C=C4N=C1[C@@H](CCC(N)=O)C\4(C)C)[C@@H](CCC(N)=O)[C@]\3(C)CC(N)=O)[C@@H](CCC(N)=O)[C@]2(C)CC(N)=O.[Co+3].[OH-] [hydroxycobalamin] | 53 |
| 6.66 | CN1CCC(n2cnc3cc(NC(=N)c4cccs4)ccc32)CC1 [Compound 59] | – |
